These results are taken from patent publication US6930118B2, “3-Oxadiazol-5-yl-1-aminoalkyl-1h-indole derivatives” (Amrad Operations Pty. Ltd., priority 2001, dated 2005).

pIC50: −log10 of the molar value. Structures can show the parent of a compound that is named as a salt. Where only a bound is given, the exact number is not on record here.

The target of data set [1] is T1, CB1 receptor (Mus musculus, UniProt P47746).
T1 construct: Mouse vasa deferentia were dissected with capsular connective tissue intact and set up in 20 ml organ baths; from tissue; host or cells: mouse (Swiss white) isolated vas deferens
Kind of data set: Mouse electrically-stimulated isolated vas deferens bioassay (MVD). Format: cell-based. To be noted: decrease of electrically evoked twitch force; for inhibition at 1 µM: read-out: CB1 (MVD) % inh at 1.0 μM. On the procedure: Functional activity of the compounds was assayed using the mouse electrically-stimulated vas deferens bioassay, a measure of CB1 receptor function (24,25). […] CB2 functionality may be investigated using assays known to those skilled in the art; for example those described in U.S. Pat. No. 6,013,648.
Swiss white mice (35-40 g) were killed by exposure to 80% CO2 in O2 and exsanguination. Mouse vasa deferentia were dissected with capsular connective tissue intact and set up in 20 ml organ baths at 37° C. in Mg^2+-free physiological salt solution. The upper (epididymal) end was attached to an isometric force transducer (Grass FTO3C) and the lower (prostatic) end tied to a fixed support between two parallel platinum field electrodes (5 mm apart, 5 mm long). The tissue was initially stretched by 0.5 g force and allowed to equilibrate 10 min. The tissues were stimulated (Grass S88 stimulator) to contract using trains of electrical field stimulation of 3 pulses (4 Hz), 0.5 ms duration, 100 V (80% maximal voltage) every 20 s for 10 min. This electrical stimulation period was applied before and after both antagonist and agonist addition. Output from the transducer amplifier was recorded on a flat bed recorder (Gould BS 272, Cleveland, Ohio, U.S.A.). All drugs were dissolved in dimethyl sulfoxide (DMSO; Sigma, St Louis, Mo., U.S.A.) and allowed to equilibrate with the tissue for 30 min before the responses to field stimulation were assessed. Drug effects were measured as the percentage decrease of the pre-drug twitch force.

Data set [2] deals with T2, CB1 receptor (Rattus norvegicus, UniProt P20272).
T2 construct: the cerebellum was dissected away from the rest of the brain, weighed and homogenised; from tissue; host or cells: Sprague Dawley rat cerebellum membranes
Kind of data set: Radioligand binding assay, rat cerebellum membranes. As for the experimental part: (§1) The affinity of compounds at cannabinoid receptors is routinely assessed using ligand binding assays known to those skilled in the art. Radioligand binding assays were conducted using rat cerebellum or rat spleen. The cerebellum of the rat is known to express predominantly, if not exclusively, the CB1 receptor subtype (20,21). Thus, binding constants obtained from these studies are characterised by a single affinity value, as only one receptor type is labelled. […] In contrast, biphasic binding curves in the spleen characterised by two affinity constants represent the profile of compounds showing selectivity for one receptor subtype over another. In order to determine the order of selectivity, the high and low affinity values obtained for these compounds in the spleen binding assays were compared to the single affinity estimates obtained for the cerebellum (CB1) assays.
Sprague Dawley rats of either sex (200-300 g) were killed by gassing with 80% CO2 in O2 and decapitation, and the entire brain excised rapidly and placed in ice-cold Tris-HCl buffer (Tris 50 mM, MgCl2 3 mM, EGTA 0.2 mM, pH to 7.4 with HCl). On ice, the cerebellum was dissected away from the rest of the brain, weighed and homogenised (PT-DA 1205/2EC Polytron Aggregate; Kinematica, Luzernerstrasse Switzland) in 10 volumes of ice-cold Tris-HCl buffer. The homogenate was then made up to 20 volumes and centrifuged (Model J2-M1, Beckman, Fullerton, Calif., U.S.A.) at […] for 15 min at 4° C.). Subsequently, the supernatant was discarded, the pellet resuspended in 20 volumes of buffer and centrifuged as before. The resulting pellet was then resuspended in 20 volumes of buffer and assayed for protein content using the method of Bradford (Bradford, 1976) in a Novaspec II spectrophotometer (Pharmacia Biotech; with bovine serum albumin (BSA; Hömosafe BSA, c/o ‘ScimaR’ Templestowe, Australia) as the standard. The homogenate was then recentrifuged and the final pellet resuspended in Tris-HCl buffer at a protein concentration of 5 mg/ml and stored in 500 μl aliquots at −80° C. until used in the binding assay.
(§2) Ligand binding assays were performed in polypropylene tubes in a total volume of 1 ml containing Tris-HCl buffer, a final concentration of 1 mg/ml BSA, and varying concentrations of drugs. Tubes contained 30 μg of membrane protein and incubation was started by the addition of 100 μl of either 0.5 nM [^3H]SR141716A or 0.2 nM [^3H]WIN 55,212-2. Experiments were carried out in triplicate at 30° C. for 90 min with non-specific binding being defined as radioligand binding in the presence of 1 μM unlabelled WIN 55,212-2. Incubations were terminated by rapid filtration with a M-24 Cell Harvester (Brandel; Gaithersburg, Md., U.S.A.) using ice-cold Tris-HCl buffer containing 0.5 mg/ml BSA. Filters (Wattman GF/B) were soaked for 2 h prior to filtering in a solution of Tris-HCl buffer containing 3 mg/ml BSA and 0.5% w/w polyethyleneimine (PEI). Filters were left to dry thoroughly before placement into scintillation vials with 5 ml of scintillation cocktail (Ultima Gold LSC-cocktail; Packard Bioscience, Meriden, Conn., U.S.A.) being added. Vials were left to stand overnight before the radioactivity was determined using a Model 1409 DSA Liquid Scintillation counter (EG&E Wallac, Gaithersburg, Md., U.S.A.).
(§3) The resulting radioligand binding curves were analyzed by nonlinear regression using the program PRISM 3.0 (GraphPad Software, San Diego, Calif.) in order to derive ligand affinity estimates for the cannabinoid receptor(s).

The target of data set [3] is T3, CB2 receptor (Rattus norvegicus, UniProt Q9QZN9).
T3 sequence (Q9QZN9 1-343 limits assumed): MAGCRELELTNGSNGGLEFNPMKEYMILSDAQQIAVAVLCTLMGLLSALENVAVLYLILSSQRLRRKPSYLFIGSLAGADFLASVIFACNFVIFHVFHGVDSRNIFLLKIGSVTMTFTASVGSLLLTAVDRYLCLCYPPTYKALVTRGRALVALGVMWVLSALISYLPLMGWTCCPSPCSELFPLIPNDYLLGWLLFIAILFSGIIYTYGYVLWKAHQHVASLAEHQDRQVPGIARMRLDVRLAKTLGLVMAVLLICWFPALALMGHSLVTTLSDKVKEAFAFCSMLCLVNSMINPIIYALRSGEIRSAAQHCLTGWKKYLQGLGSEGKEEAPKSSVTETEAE
Kind of data set: Radioligand binding assay, rat spleen membranes. As for the experimental part:
as §1
Sprague Dawley rats (200-300 g) were killed by gassing with 80% CO2 in O2 and decapitation and the spleen excised rapidly and placed in ice-cold Tris-HCl buffer (Tris 50 mM, MgCl2 3 mM, EGTA 0.2 mM, pH 7.4). The spleen was weighed and diced using a scalpel before homogenisation in 10 volumes of Tris-HCl buffer. The homogenate was then made up to 20 volumes and centrifuged (12,600 g, 5 min, 4° C.), the supernatant was retained and centrifuged (23,800 g, 20 min, 4° C.). The pellet was resuspended in 10 volumes of buffer and assayed for protein content using the method of Bradford (Bradford, 1976) with BSA as the standard. The homogenate was then recentrifuged and the final pellet resuspended in Tris-HCl buffer at a protein concentration of 5 mg/ml and stored in 500 μl aliquots at −80° C. until used for the binding assay.
as §2, §3

T2 sequence (P20272 whole entry): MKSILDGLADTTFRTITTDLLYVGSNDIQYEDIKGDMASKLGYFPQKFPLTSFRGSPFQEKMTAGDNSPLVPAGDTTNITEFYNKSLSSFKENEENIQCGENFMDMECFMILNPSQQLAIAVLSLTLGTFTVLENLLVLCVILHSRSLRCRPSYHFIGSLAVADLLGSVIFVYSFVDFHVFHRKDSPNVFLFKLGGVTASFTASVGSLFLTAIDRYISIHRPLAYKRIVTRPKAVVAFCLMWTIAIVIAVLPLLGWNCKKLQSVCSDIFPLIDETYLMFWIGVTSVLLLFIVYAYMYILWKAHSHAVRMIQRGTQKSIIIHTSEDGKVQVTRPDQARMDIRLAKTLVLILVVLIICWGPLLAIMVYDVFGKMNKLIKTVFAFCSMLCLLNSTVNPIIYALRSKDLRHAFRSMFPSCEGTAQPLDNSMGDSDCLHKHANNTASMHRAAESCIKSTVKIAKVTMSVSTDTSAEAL
T1 sequence (P47746 whole entry): as the sequence (P20272 whole entry) above, with E95D counted along it

Broadly, the melting point is the temperature, or range, at which the solid turns liquid. For the compound `c1ccc(Cc2noc(-c3cn(CCN4CCCC4)c4ccccc34)n2)cc1` (as salt: tartrate) [Compound 1, 3-(3-Benzyl-[1,2,4]-oxadiazol-5-yl)-1-[2-(pyrrolidin-1-yl)ethyl]-1H-indole], the melting point lay within 59 to 60 °C. As to `CCCCC/C=C\C/C=C\C/C=C\C/C=C\CCCC(=O)NCCO` [Anandamide, reference compound], the inhibition at 1 µM in data set [1] stood at 84%.

One may read the pIC50 as −log10 of the IC50, conventionally taken in molar units. For `c1ccc(Cc2noc(-c3cn(CCN4CCOCC4)c4ccccc34)n2)cc1` [Compound 2, 3-(3-Benzyl-[1,2,4]-oxadiazol-5-yl)-1-[2-(morpholin-4-yl)ethyl]-1H-indole], the negative-log IC50 (pIC50) in data set [2] and in data set [3] was 6.00 throughout. Moreover, the inhibition at 1 µM in data set [1] stood at 96%. Take `c1ccc(-c2noc(-c3cn(CCN4CCOCC4)c4ccccc34)n2)cc1` [Compound 3, 3-(3-Phenyl-[1,2,4]-oxadiazol-5-yl)-1-[2-(morpholin-4-yl)ethyl]-1H-indole]: the melting point is 144 to 146 °C. For the same compound, in data set [2], the pIC50 was 6.00. Also, the inhibition at 1 µM in data set [1] was 83%. In data set [3], this compound gave a negative logarithm of the IC50 (pIC50) of 6.00. As to `c1csc(Cc2noc(-c3cn(CCN4CCOCC4)c4ccccc34)n2)c1` [Compound 4, 1-[2-(Morpholin-4-yl)ethyl]-3-(3-thien-2-ylmethyl-[1,2,4]oxadiazol-5-yl)-1H-indole], the negative logarithm of the IC50 (pIC50) in data set [2] was 7.00. In addition, the inhibition at 1 µM in data set [1] came to 81%. On to `c1ccc(Cc2noc(-c3cn(CCN4CCCCC4)c4ccccc34)n2)cc1` [Compound 5, 3-(3-Benzyl-[1,2,4]oxadiazol-5-yl)-1-[2-(piperidin-1-yl)ethyl]-1H-indole], for which, in data set [1], the inhibition at 1 µM came to 46%. As to `COc1ccc(Cc2noc(-c3cn(CCN4CCOCC4)c4ccccc34)n2)cc1` [Compound 6, 3-[3-(4-Methoxy-benzyl)-[1,2,4]oxadiazol-5-yl]-1-[2-(morpholin-4-yl)ethyl]-1H-indole], the negative logarithm of the IC50 (pIC50) in data set [2] is 6.70; in data set [3], 5.55. Further, the inhibition at 1 µM in data set [1] stood at 39%. Turning to `Brc1ccc(Cc2noc(-c3cn(CCN4CCOCC4)c4ccccc34)n2)cc1` [Compound 7, 3-[3-(4-Bromo-benzyl)-[1,2,4]oxadiazol-5-yl]-1-[2-(morpholin-4-yl)ethyl]-1H-indole], the inhibition at 1 µM in data set [1] was determined as 58%. Consider `CCCCCn1cc(-c2nc(Cc3ccccc3)no2)c2ccccc21` [Compound 8, 3-(3-Benzyl-[1,2,4]oxadiazol-5-yl)-1-pentyl-1H-indole], for which the pIC50 in data set [2] was 8.22; in data set [3], 6.40. In data set [1], the inhibition at 1 µM stood at 100%. With `c1ccc(CCc2noc(-c3cn(CCN4CCOCC4)c4ccccc34)n2)cc1` [Compound 9, 1-[2-(morpholin-4-yl)ethyl]-3-(3-phenethyl-[1,2,4]oxadiazol-5-yl)-1H-indole], the inhibition at 1 µM in data set [1] is 90%. In addition, the pIC50 in data set [3] was 5.92.

Regarding `Clc1ccccc1Cc1noc(-c2cn(CCN3CCOCC3)c3ccccc23)n1` [Compound 10, 3-[3-(2-Chlorobenzyl)-[1,2,4]-oxadiazol-5-yl]-1-[2-(morpholin-4-yl)ethyl]-1H-indole], the inhibition at 1 µM in data set [1] stood at 95%. On to `c1ccc(-c2ccc(-c3noc(-c4cn(CCN5CCOCC5)c5ccccc45)n3)cc2)cc1` [Compound 11, 3-[3-(Biphenyl)-[1,2,4]oxadiazole-5-yl]-1-[2-(morpholin-4-yl)ethyl]-1H-indole], for which the pIC50 in data set [2] and in data set [3] was under 5.00 in each case. For the same compound, the “CB1 (MVD) % inh at 1.0 μM” value in data set [1] was determined as 11%. For `c1ccc2cc(Cc3noc(-c4cn(CCN5CCCC5)c5ccccc45)n3)ccc2c1` [Compound 12, 3-[3-(naphth-2-ylmethyl)-[1,2,4]-oxadiazol-5-yl]-1-[2-(pyrolidin-1-yl)ethyl]-1H-indole], the “CB1 (MVD) % inh at 1.0 μM” value in data set [1] is 96%.

With `c1ccc2cc(Cc3noc(-c4cn(CCN5CCOCC5)c5ccccc45)n3)ccc2c1` [Compound 13, 3-[3-(naphth-2-ylmethyl)-[1,2,4]-oxadiazol-5-yl]-1-[2-(morpholin-4-yl)ethyl]-1H-indole], in data set [1], the inhibition at 1 µM amounted to 54%. For the compound `CCOC(=O)CCCCn1cc(-c2nc(Cc3ccc4ccccc4c3)no2)c2ccccc21` [Compound 14, Ethyl 5-([3-(naphth-2-ylmethyl)-[1,2,4]-oxadiazole-5-yl]-1H-indol-1-yl)pentanoate], in data set [1], the “CB1 (MVD) % inh at 1.0 μM” value was 42%. On the same count and under the same terms, the result for `O=C(O)CCCCn1cc(-c2nc(Cc3ccc4ccccc4c3)no2)c2ccccc21` [Compound 15, 5-([3-(Naphth-2-ylmethyl)-[1,2,4]-oxadiazole-5-yl]-1H-indol-1-yl)pentanoic acid] reads 54%; that for `CCOC(=O)CCn1cc(-c2nc(Cc3ccc4ccccc4c3)no2)c2ccccc21` [Compound 16, Ethyl 3-([3-(naphth-2-ylmethyl)-1,2,4-oxadiazol-5-yl]-1H-indol-1-yl)propanoate], 77%. With `Cc1c(C(=O)c2cccc3ccccc23)c2cccc3c2n1[C@@H](CN1CCOCC1)CO3` [WIN-55212, WIN-55212-2, reference compound], the inhibition at 1 µM in data set [1] came to 100%.
